Measurements from patent US11051777B2, “Imaging neurological disease” (GE Healthcare Limited, priority 2013, dated 2021).
“And” between values parts separate entries of the source, which are not always exact repeats. Identical values can stand only once.

Key:
Format in all cases: in vivo
dopamine transporter [1] = target: T1, dopamine transporter (Homo sapiens, UniProt Q01959); assay: Striatal binding ratio (SBR) from DaTSCAN images of normal subjects, ENCDAT database; settings: mean ±1 SD
T1 construct: from tissue; host or cells: striatum of living normal human subjects (in vivo SPECT imaging, ENCDAT and PPMI databases)
T1 sequence (Q01959 whole entry): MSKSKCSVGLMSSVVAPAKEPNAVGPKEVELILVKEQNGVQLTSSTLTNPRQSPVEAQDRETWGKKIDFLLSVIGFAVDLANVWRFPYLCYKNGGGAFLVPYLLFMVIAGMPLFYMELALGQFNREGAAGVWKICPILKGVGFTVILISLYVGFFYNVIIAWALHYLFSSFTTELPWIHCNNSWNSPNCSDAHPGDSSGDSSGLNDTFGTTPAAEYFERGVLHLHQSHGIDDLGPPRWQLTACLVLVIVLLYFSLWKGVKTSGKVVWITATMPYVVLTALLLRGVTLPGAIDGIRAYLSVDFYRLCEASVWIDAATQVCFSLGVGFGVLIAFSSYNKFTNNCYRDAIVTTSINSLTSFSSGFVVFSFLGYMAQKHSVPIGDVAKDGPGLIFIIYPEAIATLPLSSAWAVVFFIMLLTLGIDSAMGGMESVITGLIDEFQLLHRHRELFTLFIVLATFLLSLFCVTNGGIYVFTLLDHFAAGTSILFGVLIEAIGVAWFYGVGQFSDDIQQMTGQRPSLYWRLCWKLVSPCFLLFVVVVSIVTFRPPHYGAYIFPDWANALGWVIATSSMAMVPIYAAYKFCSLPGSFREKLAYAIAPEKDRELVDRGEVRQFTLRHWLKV
Experimental: The European Association of Nuclear Medicine RESEARCH4LIFE© initiative (“EARL”) has been compiling a database of DaTSCAN images of normal human subjects since 2007 (see http://earl.eanm.org/cms/website.php?id=/en/projects/enc-dat.htm). The ENCDAT database includes 150 normal subjects—with data from a range of camera types. SBR was calculated for the 150 normal subjects (Group A):
[formula] • where: • SBR=specific binding ratio or striatum binding ratio, • ROI=region of interest. Brain imaging data for n=37 normal subjects acquired on GE cameras in the ENCDAT database was used for the calculation of SBR (Group B). SBR for an illustrative patient from the ENCDAT database is also shown: […]

dopamine transporter [2] = target: T1, dopamine transporter; assay: Patient classification from Datscan clinical trial data using SBR plus L/R asymmetry, versus clinical diagnosis
Experimental: The 104 patient data set from Example 4 was analysed using SBR together with the L/R asymmetry of the present invention.

dopamine transporter [3] = target: T1, dopamine transporter; assay: Patient classification from Datscan clinical trial data using SBR only, versus clinical diagnosis
Experimental: The data from two GE Healthcare Ltd clinical trials of Datscan™: • (i) comparing PD and ET; • (ii) clinically uncertain PD; 104 patients in total were analysed using SBR calculation only. Each determination was compared with the patient determination based on clinical symptoms.
This gives a sensitivity of 71%, specificity of 96% and accuracy of 82% for the SBR technique. The clinical diagnosis was assumed to be the ‘true’ diagnosis, and sensitivity and specificity can then be calculated. Sensitivity=100×True Positives/(True Positives+False Negatives)=100×42/59=71%. Specificity=100×True Negatives/(True Negatives+False Positives)=100×43/45=96%. Accuracy=100×(True Positives+True Negatives)/Population=100×(42+43)/104=82%.

dopamine transporter [4] = target: T1, dopamine transporter; assay: Normal database (PPMI, ENCDAT) DaTSCAN scans, SBR method averaged per decade of life; settings: normal subjects
Experimental: Two databases of scans of DaTSCAN™ (GE Healthcare Ltd) normal human subjects were evaluated using: • (i) the SBR method of the prior art (see Example 1), with the occipital cortex as the reference region; • (ii) the L/R ratio method of the present invention. The PPMI database was of 122 subjects (age range 31-84; 62% male 38% female). The ENCDAT database was of 122 subjects (age range 20-82; 52% male 48% female). The data from all subjects in each decade of life (20 s, 30 s etc) were averaged.

dopamine transporter [5] = target: T1, dopamine transporter; assay: Striatum right:left ratio from DaTSCAN SBR data of normal subjects, ENCDAT database
Source text: Using the method of the present invention, the data from Example 1 was used to calculate a striatum right:left ratio:
Table 3 below uses SBR data for normal subjects from the ENC DAT database. Three subjects from each of five different sites are shown, but the overall average is based on data from 11 sites: […]

[6] = Normal A: 150 normal subjects, range of camera types
[7] = Normal B: n=37 normal subjects, GE cameras
[8] = 104 patients, SBR with L/R asymmetry
[9] = SBR plus asymmetry, clinical diagnosis as truth
[10] = SBR technique, clinical diagnosis as truth
[11] = WHOLE mean, overall average of 11 sites
[12] = individual normal subjects, three per site, sites 1-5

COC(=O)[C@H]1[C@@H](c2ccc([123I])cc2)C[C@@H]2CC[C@H]1N2CCCF [DaTSCAN, ^123I-ioflupane]
SBR Striatum left (dopamine transporter [1]; [6]): 2.88 ± 0.69 and 2.88 +/− 0.69
SBR Striatum right (dopamine transporter [1]; [6]): 2.88 ± 0.65 and 2.88 +/− 0.65
SBR Striatum left (dopamine transporter [1]; [7]): 2.42 +/− 0.63
SBR Striatum right (dopamine transporter [1]; [7]): 2.41 +/− 0.63
number of subjects: SBR + Asymmetry Abnormal, Clinical Abnormal (dopamine transporter [2]; [8]): 54
number of subjects: SBR + Asymmetry Abnormal, Clinical Normal (dopamine transporter [2]; [8]): 11
number of subjects: SBR + Asymmetry Normal, Clinical Abnormal (dopamine transporter [2]; [8]): 5
number of subjects: SBR + Asymmetry Normal, Clinical Normal (dopamine transporter [2]; [8]): 34
accuracy (dopamine transporter [2]; [9]): 85%
sensitivity (dopamine transporter [2]; [9]): 92%
specificity (dopamine transporter [2]; [9]): 76%
number of subjects: SBR Abnormal, Clinical Abnormal (dopamine transporter [3]; 104 patients, SBR only): 42
number of subjects: SBR Abnormal, Clinical Normal (dopamine transporter [3]; 104 patients, SBR only): 2
number of subjects: SBR Normal, Clinical Abnormal (dopamine transporter [3]; 104 patients, SBR only): 17
number of subjects: SBR Normal, Clinical Normal (dopamine transporter [3]; 104 patients, SBR only): 43
accuracy (dopamine transporter [3]; [10]): 82%
sensitivity (dopamine transporter [3]; [10]): 71%
specificity (dopamine transporter [3]; [10]): 96%
SBR (dopamine transporter [4]; eighties age group): about 2.2
SBR (dopamine transporter [4]; thirties age group): about 3.2
SBR left, normal range (dopamine transporter [5]; Normal range (+/-1 SD)): 1.79-3.05
SBR right, normal range (dopamine transporter [5]; Normal range (+/-1 SD)): 1.78-3.04
Striatum Right:left, normal range (dopamine transporter [5]; Normal range (+/-1 SD)): 0.96-1.04
Striatum Right:left (dopamine transporter [5]; Normal subjects, mean +/-1 SD): 1.00 +/− 0.04
Anterior putamen R:L ratio (dopamine transporter [5]; [11]): 1.00
Caudate R:L ratio (dopamine transporter [5]; [11]): 0.99
Posterior Putamen R:L ratio (dopamine transporter [5]; [11]): 1.01
Putamen R:L ratio (dopamine transporter [5]; [11]): 1.01
SBR Striatum L (dopamine transporter [5]; [11]): 2.88
SBR Striatum R (dopamine transporter [5]; [11]): 2.88
Striatum R:L ratio (dopamine transporter [5]; [11]): 1.00
Anterior putamen R:L ratio (dopamine transporter [5]; [12]): 1.03 (2×) and 1.00 (4×) and 0.91 and 0.98 and 0.97 and 1.01 (3×) and 1.06 and 0.99 and 0.96
Caudate R:L ratio (dopamine transporter [5]; [12]): 0.98 and 1.02 and 0.97 and 1.05 (3×) and 0.89 and 1.03 (3×) and 1.15 and 1.11 and 1.07 and 0.94 and 1.01
Posterior Putamen R:L ratio (dopamine transporter [5]; [12]): 1.03 and 1.08 and 1.18 (2×) and 1.00 and 1.05 and 0.99 and 1.20 and 1.07 (3×) and 1.02 and 1.11 (2×) and 0.93
Putamen R:L ratio (dopamine transporter [5]; [12]): 1.03 (2×) and 1.02 and 1.04 (2×) and 1.05 (2×) and 0.93 and 1.00 (3×) and 0.98 and 1.06 and 1.07 and 0.99
SBR Striatum L (dopamine transporter [5]; [12]): 3.25 and 2.58 and 3.11 and 2.60 and 2.94 and 1.88 and 4.03 and 2.33 and 3.28 and 2.62 and 2.37 and 2.50 and 4.79 and 3.22 and 3.09
SBR Striatum R (dopamine transporter [5]; [12]): 3.29 and 2.65 and 3.16 and 2.74 and 2.69 and 1.91 and 4.06 and 2.56 and 3.57 and 2.70 and 2.37 and 2.62 and 4.93 and 3.23 and 3.15
Striatum R:L ratio (dopamine transporter [5]; [12]): 1.01 (2×) and 1.03 (3×) and 1.02 (3×) and 1.05 (2×) and 0.92 and 1.10 and 1.09 and 1.00 (2×)
